Where a name gives a salt, the structure may show the parent alone.
Assays:
[1] = target: T1, recombinant human Dopamine Subtype D2s receptors (Homo sapiens, UniProt P14416); experiment: Dopamine D2 selectivity assay, inhibition of [3H]-spiperone binding to membranes; details: [3H]-spiperone 0.16 nM; read-out: D2 bind pIC50 (converted)
T1 construct: purchased Perkin Elmer
Protocol: (§1) Membranes containing recombinant human Dopamine Subtype D2s receptors were obtained from Perkin Elmer. These were diluted in Assay Buffer (50 mM HEPES, 1 mM EDTA, 120 mM NaCl, 0.1% gelatin, pH 7.4) to provide a final concentration of membranes that gave a clear window between maximum and minimum specific binding.
(§2) Assays were performed in U-bottomed 96-well polypropylene plates. 30 μL [^3H]-spiperone (0.16 nM final concentration) and 30 μL of test compound (10× final concentration) were added to each test well. For each assay plate 8 replicates were obtained for [^3H]-spiperone binding in the presence of 30 μL vehicle (10% (v/v) DMSO in Assay Buffer; defining maximum binding) or 30 μL Haloperidol (10 μM final concentration; defining non-specific binding (NSB)). Membranes were then added to achieve a final volume of 300 μL. The plates were incubated for 2 hours at room temperature and then filtered onto PEI coated GF/B filter plates, pre-soaked for 1 hour in Assay Buffer, using a 96-well plate Tomtec cell harvester. Five washes with 250 μL wash buffer (50 mM HEPES, 1 mM EDTA, 120 mM NaCl, pH 7.4) were performed at 4° C. to remove unbound radioactivity. The plates were dried then sealed from underneath using Packard plate sealers and MicroScint-O (50 μL) was added to each well. The plates were sealed (TopSeal A) and filter-bound radioactivity was measured with a scintillation counter (TopCount, Packard BioScience) using a 3-minute counting protocol.
(§3) Total specific binding (B0) was determined by subtracting the mean NSB from the mean maximum binding. NSB values were also subtracted from values from all other wells. […] Data was fitted to a four parameter logistic equation to determine the compound potency, which was expressed as pIC50 (negative log molar concentration inducing 50% inhibition of [^3H]-spiperone binding).

[2] = target: T2, recombinant human α1D receptor (Homo sapiens, UniProt P25100); experiment: Adrenergic α1D selectivity assay, inhibition of [3H]-prazosin binding to membranes; details: HEK293 membranes, [3H]-prazosin 0.3 nM; read-out: α1 bind pIC50 (converted)
T2 construct: made in house; host or cells: HEK293 cells (membranes)
T2 sequence (P25100 1-572): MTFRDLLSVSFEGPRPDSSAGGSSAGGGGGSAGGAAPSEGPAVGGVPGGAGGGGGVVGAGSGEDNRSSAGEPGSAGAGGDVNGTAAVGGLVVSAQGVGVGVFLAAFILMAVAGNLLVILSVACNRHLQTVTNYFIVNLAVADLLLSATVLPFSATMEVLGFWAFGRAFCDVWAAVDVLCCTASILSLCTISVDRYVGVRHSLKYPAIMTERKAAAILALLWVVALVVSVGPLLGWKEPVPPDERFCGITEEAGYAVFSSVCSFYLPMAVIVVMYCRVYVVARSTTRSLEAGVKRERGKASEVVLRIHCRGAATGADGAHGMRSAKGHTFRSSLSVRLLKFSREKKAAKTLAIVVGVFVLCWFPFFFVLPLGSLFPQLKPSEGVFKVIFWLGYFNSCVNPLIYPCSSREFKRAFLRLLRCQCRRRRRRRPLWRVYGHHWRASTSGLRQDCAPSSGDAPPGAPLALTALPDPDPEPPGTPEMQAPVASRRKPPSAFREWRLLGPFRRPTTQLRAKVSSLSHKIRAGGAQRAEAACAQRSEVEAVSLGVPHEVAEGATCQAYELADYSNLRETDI
Protocol: Membranes were prepared from human embryonic kidney 293 (HEK293) cells expressing recombinant human α1D receptor. These were diluted in Assay Buffer (50 mM HEPES, 1 mM EDTA, 0.1% gelatin, pH 7.4) to provide a final concentration of membranes that gave a clear window between maximum and minimum specific binding.
as §2, with “10” for “30”, “[^3H]-prazosin (0.3” for “[^3H]-spiperone (0.16”, “[^3H]-prazosin” for “[^3H]-spiperone”, “BMY7378” for “Haloperidol”, “100” for “300”, “EDTA,” for “EDTA, 120 mM NaCl,”
as §3, with “[^3H]-prazosin” for “[^3H]-spiperone”

[3] = target: T3, recombinant human adrenergic beta 1 receptors (Homo sapiens, UniProt P08588); experiment: Adrenergic β1 selectivity assay, inhibition of [125I]-Iodocyanopindolol binding to membranes; details: [125I]-Iodocyanopindolol 0.036 nM; read-out: β1 bind p IC50 (converted)
T3 construct: purchased Euroscreen
T3 sequence (P08588 whole entry): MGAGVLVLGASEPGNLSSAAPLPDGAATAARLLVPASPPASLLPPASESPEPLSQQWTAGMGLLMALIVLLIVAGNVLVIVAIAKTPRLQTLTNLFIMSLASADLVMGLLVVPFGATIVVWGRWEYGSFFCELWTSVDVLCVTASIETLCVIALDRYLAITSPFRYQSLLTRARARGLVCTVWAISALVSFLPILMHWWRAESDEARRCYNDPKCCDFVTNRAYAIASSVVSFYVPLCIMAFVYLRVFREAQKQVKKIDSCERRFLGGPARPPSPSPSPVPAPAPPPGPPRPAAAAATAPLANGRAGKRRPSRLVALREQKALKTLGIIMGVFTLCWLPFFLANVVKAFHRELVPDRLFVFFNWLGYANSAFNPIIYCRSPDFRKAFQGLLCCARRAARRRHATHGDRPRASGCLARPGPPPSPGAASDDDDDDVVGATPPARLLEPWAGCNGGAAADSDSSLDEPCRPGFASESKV
Protocol: as §1, with “adrenergic beta 1” for “Dopamine Subtype D2s”, “Euroscreen.” for “Perkin Elmer.”
Assays were performed in U-bottomed 96-well polypropylene plates. 10 μL [^125I]-Iodocyanopindolol (0.036 nM final concentration) and 10 μL of test compound (10× final concentration) were added to each test well. For each assay plate 8 replicates were obtained for [^125I]-Iodocyanopindolol binding in the presence of 10 μL vehicle (10% (v/v) DMSO in Assay Buffer; defining maximum binding) or 10 μL Propranolol (10 μM final concentration; defining non-specific binding (NSB)). Membranes were then added to achieve a final volume of 100 μL. […] Five washes with 250 μL wash buffer (50 mM HEPES, 1 mM EDTA, 120 mM NaCl, pH 7.4) were performed at 4° C. to remove unbound radioactivity. […] The plates were sealed (TopSeal A) and filter-bound radioactivity was measured with a scintillation counter (TopCount, Packard BioScience) using a 3-minute counting protocol.
Total specific binding (B0) was determined by subtracting the mean NSB from the mean maximum binding. […]

T1 sequence (P14416 1-414 isoform P14416-2): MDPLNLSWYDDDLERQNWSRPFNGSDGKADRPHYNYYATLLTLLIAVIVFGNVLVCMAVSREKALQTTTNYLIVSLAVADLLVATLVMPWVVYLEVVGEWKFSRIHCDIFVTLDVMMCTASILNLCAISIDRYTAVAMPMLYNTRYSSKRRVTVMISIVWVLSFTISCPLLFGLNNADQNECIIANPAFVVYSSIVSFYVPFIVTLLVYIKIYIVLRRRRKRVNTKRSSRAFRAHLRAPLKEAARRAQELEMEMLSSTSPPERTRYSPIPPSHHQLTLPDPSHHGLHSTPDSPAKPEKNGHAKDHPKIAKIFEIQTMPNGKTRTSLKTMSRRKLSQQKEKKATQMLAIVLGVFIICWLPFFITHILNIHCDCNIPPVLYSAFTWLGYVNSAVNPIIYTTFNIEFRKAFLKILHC

Row | Compound | IC50 [1] [nM] | IC50 [2] [nM] | IC50 [3] [nM]
1 | CCN(CC)CCN(CCNCCc1ccc(O)c2[nH]c(=O)sc12)C(=O)CCOCCc1cccc(C)c1 [Example 28, N-[2-(Diethylamino)ethyl]-N-(2-{[2-(4-hydroxy-2-oxo-2,3-dihydro-1,3-benzothiazol-7-yl)ethyl]amino}ethyl)-3-[2-(3-methylphenyl)ethoxy]propanamide] | 1000 | 1260 | 1000
2 | CCN(CC)CCN(CCNCCc1ccc(O)c2[nH]c(=O)sc12)C(=O)CCOCCc1ccc(Cl)cc1 [Example 26, 3-[2-(4-Chlorophenyl)ethoxy]-N-(2-diethylaminoethyl)-N-{2-[2-(4-hydroxy-2-oxo-2,3-dihydro-1,3-benzothiazol-7-yl)ethylamino]ethyl}propanamide dihydrobromide] | 1260 | 3160 | 1000

Source: patent US7709511B2, “Benzothiazolone derivatives” (AstraZeneca AB, priority 2005, dated 2010)
